Source: PubChem BioAssay AID489033 (Sanford-Burnham Center for Chemical Genomics, 2010)
Activity calls are given as the source filed them. No rule for the calls is given here.

System: 697B B-cell line, NF-kB luciferase reporter luminescence
Assay: inhibitors of B-cell NF-kB luciferase signal – 697B cells, luminescence, selectivity assay for T-cell antigen receptor NF-kB inhibitors, dose response (AID 489033)

SMILES | IC50
CC1CC(C)CN(S(=O)(=O)c2ccc(NC(=O)c3ccc(=O)[nH]c3)cc2)C1 (configuration not stated) | > 80 µM (inactive)
CCC(=O)N1c2ccc(S(=O)(=O)N3CCN(c4ccc([N+](=O)[O-])cc4)CC3)cc2CC1C (configuration not stated) | > 80 µM (inactive)
CCOCCCNC(=O)c1ccc2c(c1)N=C(CC)c1cc(Br)ccc1S2 | > 80 µM (inactive)
COc1ccc(C(C(=O)NC2CCCCC2)N(C(=O)CCl)c2ccc(C)cc2)cc1 (configuration not stated) | < 0.16 µM
O=C(Nc1ccc(S(=O)(=O)Nc2ccc(F)cc2)cc1)c1ccc(CN2CCOCC2)cc1 | > 80 µM (inactive)
Cc1ccc(Nc2nc(-c3c(C)nc4ncccn34)cs2)cc1 | > 80 µM (inactive)
COC(=O)c1[nH]c2c(c1C)C(=O)CC(c1cccc(OC)c1)C2 (configuration not stated) | > 80 µM (inactive)
O=C1CC(c2cc(F)ccc2F)c2cc3c(cc2N1)CCC3 (configuration not stated) | > 80 µM (inactive)
O=C(Nc1cccc(C(F)(F)F)c1)c1sc(Cl)nc1C(F)(F)F | 1.37 µM
Cc1ccc(C(=O)O/N=C(\N)c2ccccn2)c(C)c1 | 0.85 µM
COc1ccc(-c2csc(NC(=O)C3CCN(c4ncnc5sc(C)c(C)c45)CC3)n2)cc1OC | 11.6 µM
COC(=O)c1[nH]c2ccc(Br)cc2c1NC(=O)CN1CCN(C2CCCCC2)CC1 | 8.88 µM
Cc1ccc2oc(/N=C(\N)NC(=O)C(C)(C)C)nc2c1 | 0.47 µM
c1cc2c(cc1C1=NNC(=NC3CC3)SC1)OCCO2 | 0.3 µM
O=C(Nc1ccncc1)C1CCCN(S(=O)(=O)c2cccc3cccnc23)C1 (configuration not stated) | > 80 µM (inactive)
Cn1nc(C(C)(C)C)cc1C(=O)NCc1cc(F)cc2c1OCOC2 | > 80 µM (inactive)
Cc1cccc(NS(=O)(=O)c2ccc(-c3cnc(C4CC4)o3)cc2)c1 | > 80 µM (inactive)
Cc1cc(-c2ccc(S(=O)(=O)N(C)c3ccc(C)c(C)c3)s2)on1 | > 80 µM (inactive)
C=C(C)COc1ccc(-c2[nH]ncc2-c2ccc(OC)c(OC)c2)c(O)c1 | 41.7 µM (inactive)
O=C(O)c1ccc(N/N=C/c2ccc3c(c2)OCO3)cc1 | 1.04 µM
CCn1c2ccccc2c2cc(Nc3cc(C)nc4ncnn34)ccc21 | 47 µM (inactive)

SMILES | IC50
CC(=O)N1c2ccc(S(=O)(=O)N3CCC(C(=O)Nc4cccc(C)n4)CC3)cc2CC1C (configuration not stated) | 0.79 µM
COc1ccc(Cn2c(SCc3ccc(C)cc3)nc3cc(OC)c(OC)cc3c2=N)cc1Cl | 4.8 µM
COc1cc(-c2noc(C)c2/C=C/c2ccc(OC(C)=O)cc2)cc(OC)c1OC | > 80 µM (inactive)
Cc1ccc2cccc(NS(=O)(=O)c3ccccc3)c2n1 | 0.94 µM
O=C(c1ccc(Cl)cc1)c1cc([N+](=O)[O-])ccc1N1CCOCC1 | 76 µM (inactive)
COc1ccc(-n2nnnc2-c2cccc(OC)c2)cc1 | > 80 µM (inactive)
Cc1[nH]n(-c2ccccc2)c(=O)c1/C=N/Nc1nncc(-c2ccccc2)n1 | > 80 µM (inactive)
CCCCCOC(=O)c1[nH]c2c(c1C)C(=O)CC(c1ccco1)C2 (configuration not stated) | > 80 µM (inactive)
O=C(N=Nc1c(O)[nH]c2ccc(Br)cc12)c1ccccc1-n1cccc1 | 57 µM (inactive)
Cc1ccc(/C=C/c2ccc(N(C)C)cc2)[n+](C)c1 | > 80 µM (inactive)
COC(=O)c1ccccc1NC(=O)CSc1nc(-c2ccco2)cc(C(F)(F)F)n1 | > 80 µM (inactive)
CCCC(=O)NC(c1ccc(C(C)C)cc1)c1ccc2cccnc2c1O (configuration not stated) | > 80 µM (inactive)
CN(Cc1ccccc1)C1=CC(=[N+]2CCCCC2)CC(C)(C)C1 | > 80 µM (inactive)
Cc1ccc(Nc2cc(C)nn2-c2nc(C)cc(=O)[nH]2)cc1 | 0.95 µM
O=C1C=C(c2ccc3ncccc3c2)C[C@@H](c2ccc3c(c2)OCO3)C1 | > 80 µM (inactive)
COc1ccc(C[C@H](N)C(=O)N[C@H]2[C@@H](O)[C@H](n3cnc4c(N(C)C)ncnc43)O[C@@H]2CO)cc1 | 1.62 µM
O=C1CC(c2cc(Br)ccc2F)c2cc3c(cc2N1)CCC3 (configuration not stated) | > 80 µM (inactive)
CCOCCOC(=O)c1[nH]c2c(c1C)C(=O)CC(c1ccccc1)C2 (configuration not stated) | > 80 µM (inactive)
CCOC(=O)c1ccc(Nc2nc(N)c3cc(OC)c(OC)cc3n2)cc1 | > 80 µM (inactive)
COc1ccccc1C(=O)Nc1nc2ccccc2s1 | 0.53 µM
COc1cc(NCCCCCCCN)c2ncccc2c1 | 41.4 µM (inactive)

SMILES | IC50
COc1ccc(C(=O)c2ccc(N(C)C)cc2)c(OC)c1 | > 80 µM (inactive)
c1ccc(-c2noc(-c3ccc4ccccc4c3)n2)nc1 | 0.73 µM
CCC1CCCCN1C(=O)c1cc(COc2ccc3ncccc3c2)on1 (configuration not stated) | > 80 µM (inactive)
CCC/C(O)=C1\C(=O)CC(C)(C)CC1=Nc1ccc(OC)cc1OC | > 80 µM (inactive)
O=S(=O)(c1cc(F)ccc1F)N1CCN(c2ncnc3ccccc23)CC1 | 74.1 µM (inactive)
CSC1=NC(C(Cl)(Cl)Cl)N=C(c2ccc(C)cc2)N1 (configuration not stated) | > 80 µM (inactive)
COc1ccc(C2=Nn3c(nnc3-c3ccccc3OC)SC2)cc1OC1CCCC1 | 3.54 µM
Brc1ccc2c(c1)C(C1=NCCN1)c1ccccc1CS2 (configuration not stated) | > 80 µM (inactive)
COc1ccc(Cl)cc1NC(=O)CN(C)CC(=O)Nc1ccccc1N1CCOCC1 | > 80 µM (inactive)
O=S(=O)(C/C(=C/CO)S(=O)(=O)c1ccccc1)c1ccccc1 | 0.28 µM
CCN1/C(=C/c2ccc3ccccc3[n+]2CC)C=Cc2ccccc21 | 3.57 µM
COc1ccc(OC)c(COC(=O)c2cc([N+](=O)[O-])ccc2N2CCOCC2)c1 | > 80 µM (inactive)
Cc1ccc(C(=O)c2cc([N+](=O)[O-])ccc2N2CCCCC2)c(C)c1 | > 80 µM (inactive)
CCCCCCCCCCCCCCCC[n+]1ccc(C(N)=O)cc1 | 8.82 µM
CC(Oc1ccc(Cl)cc1Cl)c1nc(-c2ccc(NC(=O)c3ccncc3)cc2)no1 (configuration not stated) | 29.5 µM (inactive)
CN(Cc1ccccc1)C1=CC(=[N+]2CCCC2)CC(C)(C)C1 | > 80 µM (inactive)
Cc1cccc(NS(=O)(=O)c2ccc(-c3cnc(C4CC4)o3)cc2)c1C | 36.7 µM (inactive)
C=CCSc1nc2ccccc2n1C(=O)/C=C/c1cc(OC)c(OC)c(OC)c1 | > 80 µM (inactive)
Cc1sc2ncnc(NC3CCN(Cc4ccccc4)CC3)c2c1C | 2.51 µM
COc1ccc(C(=O)Nc2ccc3[nH]c(-c4cccc(OC)c4)cc(=O)c3c2)cc1 | > 80 µM (inactive)
CCN(CC)S(=O)(=O)c1cc(NC(=O)CNc2cccc(S(=O)(=O)N3CCCC3)c2)ccc1C | > 80 µM (inactive)

SMILES | IC50
Cc1ccccc1NS(=O)(=O)c1ccc(N2CCCC2=O)cc1 | > 80 µM (inactive)
CC(C)CC[n+]1ccccc1/C=C/c1ccc(N(C)C)cc1 | > 80 µM (inactive)
Cc1cccc(N2CCN(C(=O)c3ccc(CS(=O)(=O)c4ccccc4C)o3)CC2C)c1 (configuration not stated) | 22.3 µM (inactive)
CC1(C)Cc2c(sc(NC(=O)COc3cccc4ccccc34)c2C#N)C(C)(C)N1 | 8.2 µM
CC(Nc1ncnc2ccccc12)c1ccccc1 (configuration not stated) | > 80 µM (inactive)
O=C(Nc1ccc(S(=O)(=O)Nc2ccccc2)cc1)c1ccc(CN2CCOCC2)cc1 | 46.1 µM (inactive)
Cc1cc(C)cc(NC(=O)c2cc(C)n(Cc3cccs3)c2C)c1 | 24.1 µM (inactive)
CC1CCN(c2c(NCc3ccc(C(=O)N4CCc5ccccc54)cc3)c(=O)c2=O)CC1 | > 80 µM (inactive)
N/C(=N\OCc1ccc([N+](=O)[O-])cc1)c1ccccn1 | 2.43 µM
O=C(N/N=C\c1c(O)ccc2ccccc12)c1ccc(S(=O)(=O)N2CCCCC2)cc1 | > 80 µM (inactive)
COc1ccc2c(C)nc(Nc3nc(-c4ccccc4)cc(=O)[nH]3)nc2c1 | > 80 µM (inactive)
Cc1ccc(/C=N/NC(=O)C2COc3ccccc3O2)s1 (configuration not stated) | 45.6 µM (inactive)
COc1ccc2c(c1)/C(=C/c1cnc[nH]1)C(=O)N2 | 4.8 µM
O=[N+]([O-])c1ccc(-c2nc(C(Cl)Cl)c3ccccc3n2)cc1 | 1.6 µM
NC(=O)CC(NC(=O)c1ccc(Br)cc1)c1ccc(N2CCCCCC2)c([N+](=O)[O-])c1 (configuration not stated) | 47.5 µM (inactive)
CCOc1ccc2c(c1)OC(c1ccc(C)cc1)(C(F)(F)F)NC2=O (configuration not stated) | > 80 µM (inactive)
COc1cccc(/C=N/NC(=O)c2[nH]nc3c2CCc2ccccc2-3)c1O | 61.7 µM (inactive)
CCN(CC)c1ccc2nc3ccc(N)cc3[n+](-c3ccccc3)c2c1 | 57.5 µM (inactive)
CN=c1scc(-c2cccs2)n1/N=C/c1ccccc1O | 1.33 µM
